# Tested on: human prolyl 4-hydroxylase
# Test: Expression of human prolyl 4-hydroxylase by Western blotting in oligonucleotide-treated HCT116 cells
# Assay type: cell-based
# Conditions: HCT116, 10 μM once per day for seven days
# Experimental: The cell line used for testing is the human colon cancer cell line HCT116. Cells are cultured in RPMI-1640 with 10-15% fetal calf serum at a concentration of 10,000 cells per milliliter in a volume of 0.5 ml and kept at 37° C. in a 95% air/5% CO2 atmosphere.
# Phosphorothioate oligoribonucleotides are synthesized on an Applied Biosystems Model 380B DNA synthesizer using phosphoroamidite chemistry. A sequence of 24 bases complementary to the nucleotides at position 1 to 24 of SEQ ID NO:1 or SEQ ID NO:3 is used as the test oligonucleotide. As a control, another (random) sequence is used: 5′-TCAACTGACTAGATGTACATGGAC-3′ (SEQ ID NO:11). Following assembly and deprotection, oligonucleotides are ethanol-precipitated twice, dried, and suspended in phosphate buffered saline at the desired concentration. Purity of the oligonucleotides is tested by capillary gel electrophoresis and ion exchange HPLC. The purified oligonucleotides are added to the culture medium at a concentration of 10 μM once per day for seven days.
# This effect is not observed with the control oligonucleotide. After 3 to 7 days, the number of cells in the cultures is counted using an automatic cell counter. The number of cells in cultures treated with the test oligonucleotide (expressed as 100%) is compared with the number of cells in cultures treated with the control oligonucleotide.
substance,measurement,value
"5′-TCAACTGACTAGATGTACATGGAC-3′ (TCAACTGACTAGATGTACATGGAC; listed as DNA, chemistry not given here) [control oligonucleotide]",expression of human prolyl 4-hydroxylase as determined by Western blotting,not observed

# From patent US20060110769A1, “Regulation of novel human prolyl 4-hydroxylases” (Bayer Aktiengesellschaft, priority 2001, published 2006)
